From ChEMBL document CHEMBL1122915, “Synthesis and biological activity of carboxylic acid replacement analogues of the potent angiotensin converting enzyme inhibitor 5(S)-benzamido-4-oxo-6-phenylhexanoyl-L-proline” (J Med Chem, 1985)

Biological target: T1, Angiotensin-converting enzyme (Rattus norvegicus, UniProt P47820)
T1 sequence (P47820 whole entry): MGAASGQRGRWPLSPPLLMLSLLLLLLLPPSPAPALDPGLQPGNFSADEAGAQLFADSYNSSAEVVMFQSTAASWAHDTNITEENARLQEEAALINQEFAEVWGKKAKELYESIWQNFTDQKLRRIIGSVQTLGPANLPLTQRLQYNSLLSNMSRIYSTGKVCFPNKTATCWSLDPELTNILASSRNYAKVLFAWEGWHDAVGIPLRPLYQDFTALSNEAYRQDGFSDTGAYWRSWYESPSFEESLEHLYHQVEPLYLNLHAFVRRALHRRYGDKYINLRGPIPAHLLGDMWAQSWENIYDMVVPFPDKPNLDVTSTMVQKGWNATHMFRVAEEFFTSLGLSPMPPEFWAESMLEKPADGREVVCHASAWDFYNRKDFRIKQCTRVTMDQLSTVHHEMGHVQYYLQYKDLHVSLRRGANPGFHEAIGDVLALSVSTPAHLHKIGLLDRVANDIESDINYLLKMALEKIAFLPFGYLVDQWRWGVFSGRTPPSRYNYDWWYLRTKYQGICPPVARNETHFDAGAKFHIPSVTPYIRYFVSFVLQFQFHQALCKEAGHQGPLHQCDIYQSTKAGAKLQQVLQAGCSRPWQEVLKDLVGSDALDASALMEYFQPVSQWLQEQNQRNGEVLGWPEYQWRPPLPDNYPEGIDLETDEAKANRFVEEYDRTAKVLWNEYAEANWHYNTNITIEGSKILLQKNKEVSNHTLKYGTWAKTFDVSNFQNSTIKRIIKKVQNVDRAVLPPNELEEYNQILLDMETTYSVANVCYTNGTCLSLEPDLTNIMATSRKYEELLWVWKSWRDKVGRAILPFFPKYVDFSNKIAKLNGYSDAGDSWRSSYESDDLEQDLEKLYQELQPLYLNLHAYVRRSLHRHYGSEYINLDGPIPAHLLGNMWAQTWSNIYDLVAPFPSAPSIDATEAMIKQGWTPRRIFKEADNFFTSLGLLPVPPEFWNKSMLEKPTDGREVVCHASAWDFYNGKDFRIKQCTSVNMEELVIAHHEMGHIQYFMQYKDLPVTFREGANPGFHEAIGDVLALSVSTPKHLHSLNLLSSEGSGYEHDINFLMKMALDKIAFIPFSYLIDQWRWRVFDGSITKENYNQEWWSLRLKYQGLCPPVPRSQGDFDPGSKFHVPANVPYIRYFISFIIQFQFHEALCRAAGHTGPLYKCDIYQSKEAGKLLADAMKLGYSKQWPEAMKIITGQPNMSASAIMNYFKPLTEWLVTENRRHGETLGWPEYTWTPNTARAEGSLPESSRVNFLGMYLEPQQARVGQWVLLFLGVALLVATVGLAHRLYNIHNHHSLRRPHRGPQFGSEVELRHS
Assay: In vivo inhibitory activity against Angiotensin I converting enzyme was evaluated in renal hypertensive rats
Assay type: organism-based
Conditions: read-out: I50

| SMILES | IC50 |
| --- | --- |
| O=C(CCS)N1CCCC1P(=O)(O)O (centres undefined) | 1700 nM |
| O=C(O)[C@@H]1CCCN1C(=O)CCS | 200 nM |
| C[C@@H](CS)C(=O)N1CCC[C@H]1c1nn[nH]n1 | 260 nM |
| C[C@@H](CS)C(=O)N1CCC[C@H]1C(=O)NO | 22 nM |
